Reference: patent US20220241314A1, “COMPOSITIONS AND METHODS FOR TREATMENT OF HEPATITIS B VIRUS INFECTION” (priority 2019, published 2022)
{ppp} = triphosphate

Legend:
[1] = system: HBV cccDNA; test: HBV cccDNA formation in infected differentiated HepaRG cells (Southern blot, RT-qPCR); type: cell-based, HBV (Genotype D); settings: HBV 1000 Geq/cell, harvested 3 dpi; for IC50: read-out: IC50, decline of cccDNA relative to DMSO treated controls; for IC90: read-out: IC90, decline of cccDNA relative to DMSO treated controls
Procedure: (§1) The scheme illustrates the schedule with HBV inoculum (1000 Geq/cell) and administration of Cyclosporin A (CsA), F7, X-RNA and poly-U/UC PAMP. 2.5% DMSO was added to the medium at 1 day post infection (Dpi). cccDNA and PF RC DNA were harvested from HepG2-hNTCP cells using Hirt extraction method and analyzed by Southern blot analysis using an HBV-specific DNA probe. Viral protein-free DNAs (protein-free Relaxed Circular DNA [PF-RC DNA] and cccDNA) are noted. (2B and 2C) HepG2-hNTCP 2(B) or differentiated HepaRG cells (2C) were infected with HBV at moi of 1000 Geq/cell, and administered CsA (10 μM) or F7, in the indicated concentrations. For upper panels of (2B) and (2C), DNAs were isolated after Hirt extraction at 3 dpi and subjected to Southern blot analysis using as HBV-DNA probe. […] (2D and 2E) HepG2-hNTCP (2D) or dHepaRG cells (2E) were infected with HBV at an moi of 1000 Geq/cell, and administered CsA (10 μM), X-RNA (100 ng/ml), or poly-U/UC PAMP in the indicated concentrations. For upper panels of (2D) and (2E), DNAs were analyzed using Southern blot analysis. For lower panels of (2D) and (2E), DNAs were analyzed by RT-qPCR. IC90, and IC50 values were calculated based on the decline of the cccDNA relative to DMSO treated controls. IC90, and IC50 values are the average of three experiments±one standard deviation. […] Positions of mass markers are indicated on each Southern blot.
(§2) HBV infection HBV (Genotype D) was purified from the supernatant of HepAD38 cells by PEG concentration and subsequent sucrose gradient, as described previously (Ko, C., et al. (2014). DDX3 DEAD-Box RNA Helicase Is a Host Factor That Restricts Hepatitis B Virus Replication at the Transcriptional Level. Journal of Virology 88, 13689-13698; Watashi, K., et al. (2013), supra). For HBV infection cells were seeded into collagen-coated plates. One day later, the cells were infected with HBV in DMEM containing 4% polyethylene glycol 8000 (PEG-8000). The multiplicities of infection (expressed as virus genome equivalent/cell) are indicated in each Figure Legend. The inocula were removed 24 hours later, and the infected cultures were maintained in complete DMEM containing 2.5% DMSO until harvesting, as described previously (Ni, Y., et al. (2014). Hepatitis B and D viruses exploit sodium taurocholate co-transporting polypeptide for species-specific entry into hepatocytes. Gastroenterology 146, 1070-1083).
Reverse transcription quantitative real time qPCR (RT-qPCR) analysis: Total cellular RNAs were extracted from cells using TRIZOL reagent and the manufacturers protocol (Invitrogen). cDNA was synthesized from the purified RNA by both random and oligo (dT) priming using iScript select cDNA synthesis kit (Biorad, Inc.). […]

[2] = system: HBV cccDNA; test: HBV cccDNA formation in infected HepG2-hNTCP cells (Hirt extraction, Southern blot, RT-qPCR); type: cell-based, HBV (Genotype D); settings: harvested 3 dpi; for level of protein free-relaxed circular (PF-RC) DNA, Southern blot / HBV cccDNA formation, Southern blot: HepG2-hNTCP, treated following HBV infection; for HBV cccDNA formation, Southern blot: versus DMSO or X-RNA controls; for IC50 / IC90: HBV 1000 Geq/cell; for IC50: read-out: IC50, decline of cccDNA relative to DMSO treated controls; for IC90: read-out: IC90, decline of cccDNA relative to DMSO treated controls
Procedure: as §1
To determine how IRF3 activation impacts HBV infection and production of cccDNA in infected cells, HepG2-hNTCP cells were treated with F7 or poly-U/UC PAMP (100 ng/ml [=2.94 nM] or 200 ng/ml [=5.87 nM]) following HBV infection. Cyclosporin A (CsA) treatment was employed as an HBV entry inhibitor antiviral control (Watashi, K., et al. (2014). Cyclosporin A and its analogs inhibit hepatitis B virus entry into cultured hepatocytes through targeting a membrane transporter, sodium taurocholate cotransporting polypeptide (NTCP). Hepatology (Baltimore, Md.) 59, 1726-1737). Cells were harvested 3 days post-infection (dpi) and extracts were prepared using Hirt extraction methods for isolating protein-free DNA, as shown in FIG. 2A (Guo, H., et al. (2007). Characterization of the Intracellular Deproteinized Relaxed Circular DNA of Hepatitis B Virus: an Intermediate of Covalendy Closed Circular DNA Formation. Journal of Virology 81, 12472-12484 Hirt, B. (1967). Selective extraction of polyoma DNA from infected mouse cell cultures. Journal of molecular biology 26, 365-369).
as §2
Reverse transcription quantitative real time qPCR (RT-qPCR) analysis: Total cellular RNAs were extracted from cells using TRIZOL reagent and the manufacturers protocol (Invitrogen). cDNA was synthesized from the purified RNA by both random and oligo (dT) priming using iScript select cDNA synthesis kit (Biorad, Inc.). For HBV cccDNA expression analysis, total DNA was extracted using the DNeasy kit (QIAGEN).

[3] = Hepatitis B virus, differentiated HepaRG cells
[4] = Hepatitis B virus, HepG2-hNTCP cells

Molecule | IC50 [1, 3] [nM] | IC90 [1, 3] [nM] | level of protein free-relaxed circular (PF-RC) DNA, Southern blot [2] | HBV cccDNA formation, Southern blot [2] | IC50 [2, 4] [nM] | IC90 [2, 4] [nM] | IC50 ([1]; dHepaRG cells) [nM] | IC90 ([1]; dHepaRG cells) [nM] | IC50 ([2]; HepG2-NTCP cells) [nM] | IC90 ([2]; HepG2-NTCP cells) [nM]
O=C(Nc1ccc2nc(NC(=O)c3ccc4ccccc4c3)sc2c1)c1ccccc1 [F7, N-(6-benzamido-1,3-benzothiazol-2-yl)naphthalene-2-carboxamide] | ~3380 | ~12800 | markedly decreased | suppressed HBV cccDNA formation | ~8480 | ~17400 |  |  |  | 
poly-U/UC PAMP: ~100 nt PAMP motif from the HCV genome comprising 5′ppp and the poly U/UC region, recognized by RIG-I; formulated in liposome (nucleic acid, RNA, 5' {ppp}, backbone and methylation of C not given here; formulated in liposome, ~100 nt PAMP motif from the HCV genome comprising 5′ppp and the poly U/UC region, recognized by RIG-I; formulated in liposome) GGCCAUCCUGUUUUUUUCCCUUUUUUUUUUUCUUUUUUUUUUUUUUUUUUUUUUUUUUUUUUUUUUCUCCUUUUUUUUUCCUCUUUUUUUCCUUUUCUUUCCUUU |  |  | markedly decreased | suppressed HBV cccDNA formation |  |  | ~1.61 | ~3.3 | ~1.94 | ~12
